In this assay the target is T1, KRAS G12C 1-169, his-tagged protein, GDP-loaded (Homo sapiens, UniProt P01116, G12C).
T1 construct: KRAS G12C 1-169, his-tagged protein, GDP-loaded
T1 sequence (P01116 1-169 isoform P01116-2 G12C): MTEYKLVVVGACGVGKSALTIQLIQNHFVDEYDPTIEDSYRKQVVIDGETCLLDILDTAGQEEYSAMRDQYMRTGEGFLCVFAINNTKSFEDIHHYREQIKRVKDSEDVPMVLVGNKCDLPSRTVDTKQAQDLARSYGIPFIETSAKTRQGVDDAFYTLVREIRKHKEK
The assay can be described thus: Biochemical assay: covalent binding to KRAS G12C analyzed by mass spectrometry. Note: test concentration or dose not given here. Conditions: compounds 48-246, measured at 2 h.
As for `C=CC(=O)N1CCN(c2ncnc3cc(-c4ccnc5ccccc45)c(Cl)cc23)CC1` [Compound I-214, 1-(4-(6-chloro-7-(quinolin-4-yl)quinazolin-4-yl)piperazin-1-yl)prop-2-en-1-one], the Binding % result is “+ (+indicates binding activity from 5% to 25%)”.

Regarding `C=CC(=O)N1CCN(c2ncnc3cc(-c4c(F)ccc(F)c4O)c(Cl)cc23)CC1` [Compound I-216, 1-(4-(6-chloro-7-(3,6-difluoro-2-hydroxyphenyl)quinazolin-4-yl)piperazin-1-yl)prop-2-en-1-one], the Binding % entry was “+ (+indicates binding activity from 5% to 25%)”.

In the case of `C=CC(=O)N1CCN(c2ncnc3c(F)c(-c4cc(O)ccc4Cl)c(Cl)cc23)CC1` [Compound I-217, 1-(4-(6-chloro-7-(2-chloro-5-hydroxyphenyl)-8-fluoroquinazolin-4-yl)piperazin-1-yl)prop-2-en-1-one], the Binding % result was “+++ (+++indicates binding activity greater than 50% and up to 75%)”.

Turning to `C=CC(=O)N1CCN(c2ncnc3cc(-c4c(O)ccc5ccccc45)c(C(F)(F)F)cc23)CC1` [Compound I-218, 1-(4-(7-(2-hydroxynaphthalen-1-yl)-6-(trifluoromethyl)quinazolin-4-yl)piperazin-1-yl)prop-2-en-1-one], the Binding % entry was “+++ (+++indicates binding activity greater than 50% and up to 75%)”.

On to `CN(C)C/C=C/C(=O)N1CCN(c2ncnc3cc(-c4ccc(F)cc4F)c(Cl)cc23)CC1` [Compound I-219, (E)-1-(4-(6-chloro-7-(2,4-difluorophenyl)quinazolin-4-yl)piperazin-1-yl)-4-(dimethylamino)but-2-en-1-one], for which the Binding % result was “+ (+indicates binding activity from 5% to 25%)”.

As for `C=CC(=O)N1CCN(c2c(C#N)cnc3cc(-c4c(O)cccc4F)c(Cl)cc23)CC1` [Compound I-220, 4-(4-acryloylpiperazin-- yl)-6-chloro-7-(2-fluoro-6-hydroxyphenyl)quinoline-3-carbonitrile], the Binding % entry is “+++ (+++indicates binding activity greater than 50% and up to 75%)”.

On to `C=CC(=O)N1CCN(c2cnnc3cc(-c4ccc(F)cc4F)c(Cl)cc23)CC1` [Compound I-221, 1-(4-(6-chloro-7-(2,4-difluorophenyl)cinnolin-4-yl)piperazin-1-yl)prop-2-en-1-one], for which the Binding % result was “++ (++indicates binding activity greater than 25% and up to 50%)”.

Turning to `C=CC(=O)N1CCN(c2ncnc3cc(-c4ccccc4C4(C)CC4)c(Cl)cc23)CC1` [Compound I-222, 1-(4-(6-chloro-7-(2-(1-methylcyclopropyl)phenyl)quinazolin-4-yl)piperazin-1-yl)prop-2-en-1-one], the Binding % result was “+++ (+++indicates binding activity greater than 50% and up to 75%)”.

Turning to `C=CC(=O)N1CCN(c2ncnc3cc(-c4cccc5c4CCCN5)c(Cl)cc23)CC1` [Compound I-223, 1-(4-(6-chloro-7-(1,2,3,4-tetrahydroquinolin-5-yl)quinazolin-4-yl)piperazin-1-yl)prop-2-en-1-one], the Binding % entry was “+ (+indicates binding activity from 5% to 25%)”.

For the compound `C=CC(=O)N1CCN(c2ncnc3c(F)c(-c4ccc(F)cc4F)c(Cl)cc23)CC1` [Compound I-224, 1-(4-(6-chloro-7-(2,4-difluorophenyl)-8-fluoroquinazolin-4-yl)piperazin-1-yl)prop-2-en-1-one], the Binding % entry was “+++ (+++indicates binding activity greater than 50% and up to 75%)”.

As for `C=CC(=O)N1CCN(c2cnnc3cc(-c4ccccc4C(F)(F)F)c(Cl)cc23)CC1` [Compound I-225, 1-(4-(6-chloro-7-(2-(trifluoromethyl)phenyl)cinnolin-4-yl)piperazin-1-yl)prop-2-en-1-one], the Binding % result is “++ (++indicates binding activity greater than 25% and up to 50%)”.

Turning to `C=CC(=O)N1CCN(c2ncnc3cc(-c4nn(C)c5ccccc45)c(Cl)cc23)CC1` [Compound I-226, 1-(4-(6-chloro-7-(1-methyl-1H-indazol-3-yl)quinazolin-4-yl)piperazin-1-yl)prop-2-en-1-one], the Binding % result is “+ (+indicates binding activity from 5% to 25%)”.

Take `C=CC(=O)N1CCN(c2ncnc3c(F)c(-c4c(O)cccc4F)c(Cl)cc23)CC1` [Compound I-227, 1-(4-(6-chloro-8-fluoro-7-(2-fluoro-6-hydroxyphenyl)quinazolin-4-yl)piperazin-1-yl)prop-2-en-1-one]: the Binding % entry is given as “++++ (++++indicates binding activity greater than 75%)”.

As to `CN(C)C/C=C/C(=O)N1CCN(c2ncnc3cc(-c4ccccc4F)c(Cl)cc23)CC1` [Compound I-228, (E)0-1-(4-(6-chloro-7-(2-fluorophenyl)quinazolin-4-yl)piperazin-1-yl)-4-(dimethylamino)but-2-en-1-one], the Binding % entry is reported as “+ (+indicates binding activity from 5% to 25%)”.

Take `CN(C)C/C=C/C(=O)N1CCN(c2ncnc3c(F)c(-c4ccccc4F)c(Cl)cc23)CC1` [Compound I-229, (E)-1-(4-(6-chloro-8-fluoro-7-(2-fluorophenyl)quinazolin-4-yl)piperazin-1-yl)-4-(dimethylamino)but-2-en-1-one]: the Binding % result is “++ (++indicates binding activity greater than 25% and up to 50%)”.

Regarding `CN(C)C/C=C/C(=O)N1CCN(c2ncnc3c(F)c(-c4ccccc4F)c(-c4ccccc4F)cc23)CC1` [Compound I-230, (E)-4-(dimethylamino)-1-(4-(8-fluoro-6,7-bis(2-fluorophenyl)quinazolin-4-yl)piperazin-1-yl)but-2-en-1-one], the Binding % entry was “+ (+indicates binding activity from 5% to 25%)”.

For `C=CC(=O)N1CCN(c2cnnc3cc(-c4c(O)cccc4F)c(Cl)cc23)CC1` [Compound I-231, 1-(4-(6-chloro-7-(2-fluoro-6-hydroxyphenyl)ciinolin-4-yl)piperazin-1-yl)prop-2-en-1-one], the Binding % entry is “+++ (+++indicates binding activity greater than 50% and up to 75%)”.

With `C=CC(=O)N1CCN(c2ncnc3cc(-c4c(F)cccc4C(N)=O)c(Cl)cc23)CC1` [Compound I-232, 2-(4-(4-acryloylpiperazin-1-yl)-6-chloroquinazolin-7-yl)-3-fluorobenzamide], the Binding % result is “+ (+indicates binding activity from 5% to 25%)”.

Regarding `C=CC(=O)N1CCN(c2ncnc3cc(-c4c(O)cccc4C(F)(F)F)c(Cl)cc23)CC1` [Compound I-233, 1-(4-(6-chloro-7-(2-hydroxy-6-(trifluoromethyl)phenyl)quinazolin-4-yl)piperazin-1-yl)prop-2-en-1-one], the Binding % result was “+++ (+++indicates binding activity greater than 50% and up to 75%)”.

Regarding `C=CC(=O)N1CCN(c2ncnc3c(F)c(-c4c(C)ccc5[nH]ncc45)c(Cl)cc23)CC1` [Compound I-234, 1-(4-(6-chloro-8-fluoro-7-(5-methyl-1H-indazol-4-yl)quinazolin-4-yl)piperazin-1-yl)prop-2-en-1-one], the Binding % result is “++++ (++++indicates binding activity greater than 75%)”.

In the case of `C=CC(=O)N1CCN(c2ncnc3c(F)c(-c4c(O)ccc5ccccc45)c(Cl)cc23)CC1` [Compound I-235, 1-(4-(6-chloro-8-fluoro-7-(2-hydroxynaphthalen-1-yl)quinazolin-4-yl)piperazin-1-yl)prop-2-en-1-one], the Binding % entry was “+++ (+++indicates binding activity greater than 50% and up to 75%)”.

The record behind these values is US10111874B2, “Combination therapies for treatment of cancer” (Araxes Pharma LLC, priority 2014, dated 2018).
